What was measured:
[1] = clinical; set-up: species or system humans; details: human, in vivo
[2] = target: T1, CYP3A4 (Homo sapiens, UniProt P08684); experiment: Metabolism of laquinimod in the liver; type: in vivo; details: humans
T1 construct: from tissue; host or cells: human liver (in vivo)

[3] = test system: patients with HD; experiment: Phase II randomized, double-blind, placebo-controlled clinical trial of laquinimod in Huntington's disease; type: in vivo, human
Method: A phase II, multi-centered, multinational, randomized, parallel-group, double-blinded, placebo-controlled study is conducted to evaluate the safety and efficacy of laquinimod (0.5, 1.0 and 1.5 mg/day) versus placebo in patients with HD.
This study includes 4 treatment arms, with approximately 100 patients per treatment arm and approximately 400 patients in total. The study is conducted in approximately 30 centers in Canada, USA and Europe.
The study population is comprised of patients with adult onset HD, with a cytosine-adenosine-guanine (CAG) repeat length between 40 and 49, inclusive. The basic eligibility criteria selects a population with symptoms of HD, as assessed by a Unified HD Rating Scale—Total Motor Score (UHDRS-TMS)>5, but with a largely retained functional capacity, as assessed with a Unified HD Rating Scale—Total Functional Capacity (UHDRS-TFC) score≧8.
The dose levels of laquinimod are 0.5 mg/day, 1.0 mg/day and 1.5 mg/day. Every patient takes 3 capsules once daily at the same time of the day for the whole study period.
The Laqunimod Treatment Arms are as follows: • 1.5 mg LAQ/day: patients randomized to laquinimod 1.5 mg qd (i.e., once daily) treatment arm receive 3 capsules of 0.5 mg laquinimod daily. • 1.0 mg LAQ/day: patients randomized to laquinimod 1.0 mg qd treatment arm receive 2 capsules of 0.5 mg laquinimod and 1 capsule of matching placebo daily. • 0.5 mg LAQ/day: patients randomized to laquinimod 0.5 mg qd treatment arm receive 1 capsule of 0.5 mg laquinimod and 2 capsules of matching placebo daily.
The 0.5 mg laquinimod capsules were prepared using 0.534 mg of laquinimod sodium per capsule (which is equivalent to 0.5 mg of laquinimod acid). The capsules were prepared using a blend proportional to the 0.6 mg capsules described in PCT International Application No. PCT/US2007/013721 (WO 2007/146248). The capsules were prepared according to the method described in PCT international Application No. PCT/US2007/013721 (WO 2007/146248), which is hereby incorporated by reference into this application.
This is a multinational, multicenter, randomized, double-blind, parallel-group, placebo-controlled study to evaluate the safety and clinical effect of daily oral administration of laquinimod (0.5 mg, 1.0 mg, or 1.5 mg) in patients with HD.
Patients are treated with laquinimod for 12 months, and safety and efficacy are assessed after 1, 3, 6, 9 and 12 months of treatment. Eligible subjects are randomized in a 1:1:1:1 ratio into one of the following treatment arms: • 1. Laquinimod capsule 0.5 mg (Total of 0.5 mg) • 2. Laquinimod capsules 0.5 mg×2 (Total of 1.0 mg) • 3. Laquinimod capsules 0.5 mg×3 (Total of 1.5 mg) • 4. Matching placebo
The following assessments are performed at the specified time points: • 1. Eligibility criteria is reviewed and confirmed at screening and baseline. • 2. Vital signs are measured at each study visit. • 3. A physical examination is performed at each study visit. • 4. The following safety clinical laboratory tests are performed: • a) Complete blood count (CBC) with differential at each study visit. • b) Serum chemistry (including electrolytes, liver enzymes, urea, creatinine, glucose, total protein, albumin, direct and total bilirubin, Creatinephosphokinase (CPK), serum conventional C-reactive protein (CRP), fibrinogen and pancreatic amylase)—at all scheduled visits. […]

[4] = test system: patients with relapsing remitting MS; details: after 1 year of treatment; cited from earlier work
[5] = 0.5, 1.0 and 1.5 mg/day oral vs Placebo Arm, 12 months

T1 sequence (P08684 whole entry): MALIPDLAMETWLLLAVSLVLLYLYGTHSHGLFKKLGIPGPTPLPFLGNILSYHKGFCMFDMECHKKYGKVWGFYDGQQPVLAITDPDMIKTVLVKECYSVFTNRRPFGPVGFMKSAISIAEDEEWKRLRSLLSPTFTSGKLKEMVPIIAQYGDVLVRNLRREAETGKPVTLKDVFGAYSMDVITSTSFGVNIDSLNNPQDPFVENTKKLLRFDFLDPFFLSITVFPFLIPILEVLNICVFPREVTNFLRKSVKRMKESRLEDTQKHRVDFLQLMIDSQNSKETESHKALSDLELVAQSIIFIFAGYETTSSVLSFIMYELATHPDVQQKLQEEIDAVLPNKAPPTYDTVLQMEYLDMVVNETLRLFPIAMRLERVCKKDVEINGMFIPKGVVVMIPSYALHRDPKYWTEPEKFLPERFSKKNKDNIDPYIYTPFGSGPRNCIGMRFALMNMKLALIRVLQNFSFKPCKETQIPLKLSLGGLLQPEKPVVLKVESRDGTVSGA

CCN(C(=O)c1c(O)c2c(Cl)cccc2n(C)c1=O)c1ccccc1 [laquinimod]
Vd [1]: ~10 L | fraction unbound [1]: < 0.02 | half-life [1]: ~80 h | bioavailability ([1]; po): ~90% | oral clearance ([1]; po): ~0.09 L/h | metabolism by CYP3A4 in the liver [2]: extensively metabolized | Progression (rate of change) of CIBIC-Plus global score [3, 5]: slower | Progression (rate of change) of HADS [3, 5]: slower | Progression (rate of change) of PBA (short) [3, 5]: slower | Progression (rate of change) of Physical Performance Test (PPT) score [3, 5]: slower | Progression (rate of change) of Q-motor assessments score [3, 5]: slower | Progression (rate of change) of UHDRS-FA score [3, 5]: slower | Progression (rate of change) of UHDRS-TMS [3, 5]: slower | Progression (rate of change) of cognitive assessment battery (CAB) [3, 5]: slower | Progression (rate of change) of deterioration of functional capacity, UHDRS-TFC score [3, 5]: slower | Progression (rate of change) of work productivity and quality of life (HD-QoL) [3, 5]: slower | Progression (rate of change) of brain atrophy (whole brain, caudate, white matter, ventricular volume) ([3]; 0.5, 1.0 and 1.5 mg/day oral vs Placebo Arm, MRI, 12 months): slower | treatment of symptomatic early HD patients ([3]; 0.5, 1.0 and 1.5 mg/day oral, UHDRS-TMS >5 and/or UHDRS-TFC ≧8 at baseline): effective | effect on brain atrophy and disability progression [4]: benefit

Reference: patent publication US20170209427A1, “USE OF LAQUINIMOD TO DELAY HUNTINGTON'S DISEASE PROGRESSION” (Teva Pharmaceutical Industries, Ltd., priority 2013, published 2017)
